According to ChEMBL document CHEMBL5126532, “Synthetic approaches and structural diversity of triazolylbutanols derived from voriconazole in the antifungal drug development” (Eur J Med Chem, 2022):
Values after ≈ are worked out from the molar mass of the structure shown.

Columns and labels:
[1] = Prodrug conversion in rat plasma assessed as half life; type: ADME, cell-free
Candida albicans [2] = assay: Antifungal activity against Candida albicans TIMM1756 assessed as inhibition of fungal growth incubated for 20 hrs; type: functional
Candida albicans [3] = assay: Antifungal activity against Candida albicans TIMM1850 assessed as inhibition of fungal growth incubated for 20 hrs; type: functional
Cryptococcus neoformans [4] = assay: Antifungal activity against Cryptococcus neoformans TIMM1740 assessed as inhibition of fungal growth incubated for 68 hrs; type: functional
Cryptococcus neoformans [5] = assay: Antifungal activity against Cryptococcus neoformans TIMM1855 assessed as inhibition of fungal growth incubated for 68 hrs; type: functional
Aspergillus fumigatus [6] = assay: Antifungal activity against Aspergillus fumigatus TIMM1728 assessed as inhibition of fungal growth incubated for 20 hrs; type: functional
Aspergillus fumigatus [7] = assay: Antifungal activity against Aspergillus fumigatus IFO6344 assessed as inhibition of fungal growth incubated for 20 hrs; type: functional
Candida albicans [8] = assay: In vivo antifungal activity against Candida albicans infected in CDF1 mouse treated po 4 hrs after injection twice daily for 2 days measured on day 10; type: functional; details: 48 h, time 2 day
Aspergillus fumigatus [9] = assay: In vivo antifungal activity against Aspergillus fumigatus infected in CDF1 mouse treated po 4 hrs after injection twice daily for 2 days measured on day 10; type: functional; details: 48 h, time 2 day
Candida albicans [10] = assay: Antifungal activity against Candida albicans TIMM1756 by agar-dilution assay; type: functional
Candida albicans [11] = assay: Antifungal activity against Candida albicans TIMM1850 by agar-dilution assay; type: functional
Cryptococcus neoformans [12] = assay: Antifungal activity against Cryptococcus neoformans TIMM1740 by agar-dilution assay; type: functional
Cryptococcus neoformans [13] = assay: Antifungal activity against Cryptococcus neoformans TIMM1855 by agar-dilution assay; type: functional; details: TIMM 1855
Aspergillus fumigatus [14] = assay: Antifungal activity against Aspergillus fumigatus 437 by agar-dilution assay; type: functional
Aspergillus fumigatus [15] = assay: Antifungal activity against Aspergillus fumigatus IFO6344 by agar-dilution assay; type: functional
Aspergillus fumigatus [16] = assay: Antifungal activity against Aspergillus fumigatus TIMM1728 by agar-dilution assay; type: functional
Candida albicans [17] = assay: Antifungal activity against Candida albicans SANK 51486 by 96-well microplate method; type: functional
Cryptococcus neoformans [18] = assay: Antifungal activity against Cryptococcus neoformans TIMM 1855 by 96-well microplate method; type: functional
Aspergillus fumigatus [19] = assay: Antifungal activity against Aspergillus fumigatus SANK 10569 by 96-well microplate method; type: functional
Aspergillus flavus = assay: Antifungal activity against Aspergillus flavus SANK 18497 by 96-well microplate method; type: functional
Aspergillus = assay: Antifungal activity against Aspergillus; type: functional
Aspergillus fumigatus [20] = assay: Antifungal activity against Aspergillus fumigatus in 96-well microplate method; type: functional
Candida albicans [21] = assay: In vivo antifungal activity against Candida albicans ATCC48130 infected in Fisher rat administered IV; type: functional
Aspergillus fumigatus [22] = assay: In vivo antifungal activity against Aspergillus fumigatus infected in Fisher rat administered IV; type: functional
Candida albicans [23] = assay: In vivo antifungal activity against Candida albicans ATCC48130 infected in Fisher rat administered po; type: functional
Aspergillus fumigatus [24] = assay: In vivo antifungal activity against Aspergillus fumigatus infected in Fisher rat administered po; type: functional
[25] = Plasma protein binding in human; type: ADME, cell-free; details: route po, read-out: PPB (converted)
Candida parapsilosis = assay: Antifungal activity against Candida parapsilosis; type: functional; details: Lodderomyces parapsilosis
Aspergillus fumigatus [26] = assay: Antifungal activity against Aspergillus fumigatus; type: functional
Candida albicans [27] = assay: Antifungal activity against Candida albicans; type: functional
Candida tropicalis = assay: Antifungal activity against Candida tropicalis; type: functional
Nakaseomyces glabratus = assay: Antifungal activity against Candida glabrata; type: functional
Pichia kudriavzevii = assay: Antifungal activity against Candida krusei; type: functional
Candida albicans [28] = assay: In vivo antifungal activity against Candida albicans infected in CDF1 mouse treated po or iv immediately after infection measured on day 7; type: functional; details: 168 h, time 7 day
Candida albicans [29] = assay: In vivo antifungal activity against Candida albicans infected in CDF1 mouse treated po or iv 2 hrs after infection twice daily for 2 days measured on day 10; type: functional; details: 240 h, time 10 day
Nannizzia gypsea = assay: Antifungal activity against Microsporum gypseum; type: functional
[30] = Oral bioavailability in monkey relative to control; type: ADME, organism-based, Macaca mulatta; details: rhesus monkey, in vivo
[31] = Water solubility of the compound at pH 7.4; type: physicochemical; details: buffer
Cytochrome P450 3A4 = Cytochrome P450 3A4 (Homo sapiens, UniProt P08684); assay: Inhibition of CYP3A4 in human hepatocyte microsomes using testosterone as substrate by LC-MS/MS analysis; type: ADME, Microsome
Chain of Cytochrome P450 3A4 (P08684 whole entry): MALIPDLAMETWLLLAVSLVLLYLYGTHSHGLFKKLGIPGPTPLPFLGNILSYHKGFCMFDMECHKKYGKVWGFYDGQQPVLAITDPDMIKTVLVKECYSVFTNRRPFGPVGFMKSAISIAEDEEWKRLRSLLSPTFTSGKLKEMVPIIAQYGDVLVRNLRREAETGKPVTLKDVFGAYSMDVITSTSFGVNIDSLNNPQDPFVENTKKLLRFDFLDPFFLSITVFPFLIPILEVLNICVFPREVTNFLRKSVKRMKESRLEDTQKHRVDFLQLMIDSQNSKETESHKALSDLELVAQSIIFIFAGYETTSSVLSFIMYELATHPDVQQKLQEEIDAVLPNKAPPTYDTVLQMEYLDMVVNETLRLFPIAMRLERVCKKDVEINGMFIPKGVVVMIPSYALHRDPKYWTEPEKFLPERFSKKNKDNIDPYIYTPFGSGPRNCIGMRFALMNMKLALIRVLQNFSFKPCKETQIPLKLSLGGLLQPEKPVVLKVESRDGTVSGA

With `CC(=O)OCc1ccccc1N(C)C(=O)OC[n+]1cnn(C[C@](O)(c2ccc(F)cc2F)[C@@H](C)c2nc(-c3ccc(C#N)cc3)cs2)c1.[Cl-]` the t1/2 [1] was 13 min.
`C[C@@H](N1CCN(c2ccc(-n3ncnn3)cc2)C1=O)[C@](O)(Cn1cncn1)c1ccc(F)cc1F` gave an MIC (Candida albicans [2]) of no more than 0.001 µg/mL, an MIC (Candida albicans [3]) of no more than 0.001 µg/mL and an MIC (Cryptococcus neoformans [4]) of 0.016 µg/mL (≈ 0.0332 µM). It also gave an MIC (Cryptococcus neoformans [5]) of 0.016 µg/mL (≈ 0.0332 µM), an MIC (Aspergillus fumigatus [6]) of 0.25 µg/mL (≈ 0.519 µM) and an MIC (Aspergillus fumigatus [7]) of 0.25 µg/mL (≈ 0.519 µM). The ED50 (Candida albicans [8]) was 0.18 mg/kg, the ED50 (Aspergillus fumigatus [9]) was 4 mg/kg and the MIC (Candida albicans [10]) was 0.002 µg/mL (≈ 0.00415 µM). The MIC (Candida albicans [11]) was 0.002 µg/mL (≈ 0.00415 µM), the MIC (Cryptococcus neoformans [12]) was 0.03 µg/mL (≈ 0.0623 µM) and the MIC (Cryptococcus neoformans [13]) was 0.03 µg/mL (≈ 0.0623 µM). It also gave an MIC (Aspergillus fumigatus [14]) of 0.03 µg/mL (≈ 0.0623 µM), an MIC (Aspergillus fumigatus [15]) of 0.03 µg/mL (≈ 0.0623 µM) and an MIC (Aspergillus fumigatus [16]) of 0.03 µg/mL (≈ 0.0623 µM).
`C[C@@H](S[C@H]1CO[C@H](/C=C/C=C/c2ccc(OCC(F)(F)C(F)F)cc2)OC1)[C@](O)(Cn1cncn1)c1ccc(F)cc1F` showed an MIC (Candida albicans [17]) of 0.016 µg/mL (≈ 0.0254 µM), an MIC (Cryptococcus neoformans [18]) of 0.031 µg/mL (≈ 0.0492 µM) and an MIC (Aspergillus fumigatus [19]) of 0.125 µg/mL (≈ 0.199 µM). It also gave an MIC (Aspergillus flavus) of 0.125 µg/mL (≈ 0.199 µM) and an MIC (Aspergillus) of no more than 0.5 µg/mL.
`COc1ccc(-c2nc3c(s2)CN([C@H](C)[C@](O)(Cn2cncn2)c2ccc(F)cc2F)C3=O)cn1` gave an MIC80 (Aspergillus fumigatus [20]) of 4 µg/mL (≈ 8.02 µM).
Work on `CNCC(=O)Oc1c(C)cc(C[n+]2cnn(C[C@](O)(c3ccc(F)cc3F)[C@@H](C)c3nc(-c4ccc(C#N)cc4)cs3)c2)cc1C` yielded an ED50 (Candida albicans [21]) of 4.6 µmol/kg, an ED50 (Aspergillus fumigatus [22]) of 17 µmol/kg and an ED50 (Candida albicans [23]) of 4.7 µmol/kg. For the same compound, the ED50 (Aspergillus fumigatus [24]) was 19 µmol/kg.
`C=C1CCN([C@H](C)[C@](O)(Cn2cncn2)c2ccc(F)cc2F)CC1` [EFINACONAZOLE] gave a fraction unbound [25] of 0.04.
`C[C@@H](S[C@H]1CO[C@H](/C=C/C=C/c2ccc(C#N)cc2F)OC1)[C@](O)(Cn1cncn1)c1ccc(F)cc1F` [EMBECONAZOLE] showed an MIC (Candida albicans [17]) of no more than 0.008 µg/mL, an MIC (Cryptococcus neoformans [18]) of no more than 0.008 µg/mL and an MIC (Aspergillus fumigatus [19]) of no more than 0.008 µg/mL. For the same compound, the MIC (Aspergillus flavus) was no more than 0.008 µg/mL and the MIC (Aspergillus) was less than 0.5 µg/mL.
Compound `OC(Cn1cncn1)(Cn1cncn1)c1ccc(F)cc1F` [FLUCONAZOLE] has an MIC (Candida parapsilosis) of 0.12 µg/mL (≈ 0.392 µM), an MIC (Aspergillus fumigatus [26]) greater than 64 µg/mL and an MIC (Candida albicans [27]) of 0.12 µg/mL (≈ 0.392 µM). For the same compound, the MIC (Candida tropicalis) was 0.12 µg/mL (≈ 0.392 µM), the MIC (Nakaseomyces glabratus) was 0.12 µg/mL (≈ 0.392 µM) and the MIC (Pichia kudriavzevii) was 0.12 µg/mL (≈ 0.392 µM). The ED50 (Candida albicans [28]) was 0.22 mg/kg, the ED50 (Candida albicans [29]) was 179 mg/kg and the ED50 (Candida albicans [8]) was 0.22 mg/kg. For the same compound, the MIC (Candida albicans [17]) was 0.25 µg/mL (≈ 0.816 µM), the MIC (Cryptococcus neoformans [18]) was 0.25 µg/mL (≈ 0.816 µM) and the MIC (Aspergillus fumigatus [19]) was 0.25 µg/mL (≈ 0.816 µM). It also gave an MIC (Aspergillus flavus) of 0.25 µg/mL (≈ 0.816 µM) and an MIC (Nannizzia gypsea) of 32 µg/mL (≈ 104 µM).
In the case of `C[C@@H](c1nc(-c2ccc(C#N)cc2)cs1)[C@](O)(Cn1cncn1)c1cc(F)ccc1F` [ISAVUCONAZOLE], the bioavailability [30] is reported as 87%.
Compound `CCC(C)n1ncn(-c2ccc(N3CCN(c4ccc(OCC5COC(Cn6cncn6)(c6ccc(Cl)cc6Cl)O5)cc4)CC3)cc2)c1=O` (stereo unspecified) [ITRACONAZOLE] has an MIC (Candida parapsilosis) of no more than 0.25 µg/mL, an MIC (Candida albicans [27]) of no more than 0.25 µg/mL and an MIC (Candida tropicalis) of no more than 0.25 µg/mL. It also gave an MIC (Nakaseomyces glabratus) of no more than 0.25 µg/mL, an MIC (Pichia kudriavzevii) of no more than 0.25 µg/mL and an ED50 (Candida albicans [28]) of 5.19 mg/kg. For the same compound, the ED50 (Candida albicans [29]) was 19 mg/kg, the MIC (Candida albicans [17]) was 0.031 µg/mL (≈ 0.0439 µM) and the MIC (Cryptococcus neoformans [18]) was 0.031 µg/mL (≈ 0.0439 µM). It also gave an MIC (Aspergillus fumigatus [19]) of 0.031 µg/mL (≈ 0.0439 µM) and an MIC (Aspergillus flavus) of 0.031 µg/mL (≈ 0.0439 µM).
`C[C@@H](c1nc(-c2ccc(C#N)cc2)cs1)[C@](O)(Cn1cncn1)c1ccc(F)cc1F` [RAVUCONAZOLE] gave a solubility [31] of 600 µg/mL (≈ 1370 µM), an MIC80 (Nannizzia gypsea) of 1 µg/mL (≈ 2.29 µM) and an IC50 (Cytochrome P450 3A4) of 1.01 µM.
